One data set concerns CAV-21. Kind of data set: Anticoxsackieviral cell culture assay (XTT), CAV-21. The data set is classed as cell-based, coxsackievirus A21. The note with it: Enterovirus C, 48 h; CAV-21, H1-HeLa cells, m.o.i. 0.025, two days. On the technique in general: Tetrazolium assays rely on reduction of a dye to a coloured formazan, in cell work by metabolically active cells.
A short description of a further data set: in vitro. To be noted: human, mock-infected H1-HeLa cells.
Another data set relates to CVB3. Kind of data set: Anticoxsackieviral cell culture assay (XTT), CVB3. The data set is classed as cell-based, coxsackievirus B3. To be noted: Enterovirus B, 24 h; CVB3, H1-HeLa cells, m.o.i. 0.075, one day.
A further data set concerns ECHO 11. Kind of data set: Anti-echoviral cell culture assay (XTT), ECHO 11 in MRC-5 cells. The data set is classed as cell-based, echovirus 11. The note with it: Enterovirus B, MRC5, 96 h; ECHO-11, MRC-5 cells, four days. On the procedure:
(§1) Echovirus type 11 (ECHO 11) was purchased from ATCC (Rockville, Md.). Virus stocks were propagated and antiviral assays were performed in MRC-5 cells (ATCC).

The next data set has as its system HRV-10. Kind of data set: Antirhinoviral H1-HeLa cell culture assay (XTT), HRV-10. The data set is classed as cell-based. To be noted: Human rhinovirus sp., HRV10, HRV-10, H1-HeLa cells. An excerpt: (§2) (1989), vol. 81, 577-586.
In a further data set the test system is HRV-14. Kind of data set: Antirhinoviral H1-HeLa cell culture assay (XTT), HRV-14. The data set is classed as cell-based, human rhinovirus. To be noted: Rhinovirus B, HRV14, HRV-14, H1-HeLa cells.
A further data set relates to HRV-1A. Kind of data set: Antirhinoviral H1-HeLa cell culture assay (XTT), HRV-1A. The data set is classed as cell-based, human rhinovirus. The note with it: Rhinovirus A, HRV1A, H1-HeLa cells.
Description: as §2

Data set [1] concerns the target T1, recombinant rhinovirus 3C protease, serotype 14 (Human rhinovirus 14, UniProt P03303).
T1 construct: Recombinant rhinovirus 3C proteases; made in house
Kind of data set: Inhibition of rhinovirus 3C protease (FRET assay), serotype 14. The data set is classed as biochemical. On the procedure: (§3) Stock solutions (50 mM, in DMSO) of various compounds were prepared; dilutions were in the same solvent. Recombinant rhinovirus 3C proteases (see Birch et al., “Purification of recombinant human rhinovirus 14 3C protease expressed in Escherichia coli,” Protein Expr. Pur. (1995), vol. 6(5), 609-618) from serotypes 14, 16, and 2 were prepared by the following standard chromatographic procedures: (1) ion exchange using Q Sepharose Fast Flow from Pharmacia; (2) affinity chromatography using Affi-Gel Blue from Biorad; and (3) sizing using Sephadex G-100 from Pharmacia. Each assay sample contained 2% DMSO, 50 mM tris pH 7.6, 1 mM EDTA, a test compound at the indicated concentration, approximately 1 μM substrate, and 50-100 nM protease. The kobs/I values were obtained from reactions initiated by addition of enzyme rather than substrate. RVP activity was measured in the fluorescence resonance energy transfer assay. The substrate was (N-terminal) DABCYL-([…]-EDANS. In the uncleaved peptide, the EDANS fluorescence was quenched by the proximal DABCYL moiety. When the peptide was cleaved, the quenching was relieved, and activity was measured as an increase in fluorescence signal. The tabulated data in the column designated kobs/[I] were measured from progress curves in enzyme start experiments.

Data set [2] is described as follows: Cytotoxicity in uninfected H1-HeLa cells (anticoxsackieviral assay, XTT). The data set is classed as cell-based. To be noted: human.
The nature of data set [3]: Cytotoxicity in uninfected MRC-5 cells (anti-echoviral assay, XTT). The data set is classed as cell-based. To be noted: human, ECHO-11 row. As to the method: as §1
For data set [4], the target named is T2, recombinant rhinovirus 3C protease, serotype 2 (Human rhinovirus 2, UniProt P04936).
T2 construct: Recombinant rhinovirus 3C proteases; made in house
T2 sequence (P04936 1508-1690): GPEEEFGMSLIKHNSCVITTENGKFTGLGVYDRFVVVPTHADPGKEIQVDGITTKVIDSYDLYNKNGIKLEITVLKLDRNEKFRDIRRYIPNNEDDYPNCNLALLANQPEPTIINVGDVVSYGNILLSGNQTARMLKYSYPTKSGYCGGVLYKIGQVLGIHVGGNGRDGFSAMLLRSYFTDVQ
Kind of data set: Inhibition of rhinovirus 3C protease (FRET assay), serotype 2. The data set is classed as biochemical. The note with it: HRV-2 3C protease. On the procedure: as §3

In data set [5] the target is T3, recombinant rhinovirus 3C protease, serotype 16 (Human rhinovirus 16, UniProt Q82122).
T3 construct: Recombinant rhinovirus 3C proteases; made in house
T3 sequence (Q82122 1511-1693): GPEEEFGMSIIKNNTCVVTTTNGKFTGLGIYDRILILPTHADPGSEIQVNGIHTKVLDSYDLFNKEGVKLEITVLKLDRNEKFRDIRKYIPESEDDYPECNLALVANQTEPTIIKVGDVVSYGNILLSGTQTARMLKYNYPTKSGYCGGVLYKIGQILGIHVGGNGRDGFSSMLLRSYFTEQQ
Kind of data set: Inhibition of rhinovirus 3C protease (FRET assay), serotype 16. The data set is classed as biochemical. The note with it: HRV-16 3C protease. On the procedure: as §3

In the next data set the test system is HRV-16. Put plainly: Antirhinoviral H1-HeLa cell culture assay (XTT), HRV-16. The note with it: Human rhinovirus sp., HRV16, HRV-16, H1-HeLa cells. The data set is classed as cell-based.
Description: as §2

The target of data set [6] is T4, rhinovirus 3C protease, HRV-89 (Human rhinovirus A serotype 89, UniProt P07210).
T4 construct: Recombinant rhinovirus 3C proteases
T4 sequence (P07210 1522-1704): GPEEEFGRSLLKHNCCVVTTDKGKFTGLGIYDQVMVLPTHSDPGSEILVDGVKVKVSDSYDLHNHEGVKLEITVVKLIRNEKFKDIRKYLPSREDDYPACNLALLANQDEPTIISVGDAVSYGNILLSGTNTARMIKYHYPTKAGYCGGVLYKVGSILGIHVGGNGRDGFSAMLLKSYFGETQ
Put plainly: Inhibition of rhinovirus 3C protease (FRET assay), serotype 89. The data set is classed as biochemical, human rhinovirus 89. To be noted: HRV-89 3C protease.

For the next data set, the system named is HRV-89. Put plainly: Antirhinoviral H1-HeLa cell culture assay (XTT), HRV-89. The data set is classed as cell-based, human rhinovirus. To be noted: Rhinovirus A, HRV89, HRV-89, H1-HeLa cells.
Description: as §2

A further data set deals with H1-HeLa cells. Kind of data set: Cytotoxicity in mock-infected H1-HeLa cells (antirhinoviral assay, XTT). The note with it: HRV-89 row.

A value given as a limit tells only on which side of the number the result lay.

T1 sequence (P03303 1538-1719): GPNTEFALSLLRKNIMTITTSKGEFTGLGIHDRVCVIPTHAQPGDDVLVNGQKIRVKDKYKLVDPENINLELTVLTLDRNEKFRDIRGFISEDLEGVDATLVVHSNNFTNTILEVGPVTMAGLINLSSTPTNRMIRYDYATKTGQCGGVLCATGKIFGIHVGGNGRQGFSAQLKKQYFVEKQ

As to `Cc1cc(C(=O)N[C@H](C(=O)N[C@@H](Cc2ccc(F)cc2)C(=O)N[C@@H](C[C@@H]2CCNC2=O)C(=O)c2nc3ccccc3s2)C(C)C)no1` [Compound 28, (5-Methylisoxazole-3-carboxyl)-L-Val-L-Phe(4-F)-L-[(S)-Pyrrol-Ala]-2-Benzthiazole], the EC50 (usually the concentration that produces a half-maximal response) with CAV-21 turned out to be 4670 nM; in the data set on CVB3, 5790 nM; in the data set with ECHO 11, 821 nM; with HRV-10, 253 nM; with HRV-14, 335 nM; in the data set on HRV-1A, 337 nM. Also, the half-maximal cytotoxic concentration (CC50) at 2 days (in the data set “in vitro”; in [2] (CAV-21)) was 251000 nM in each case. Also, the Ki (as a rule, the equilibrium dissociation constant of an inhibitor or competing ligand from its target) in data set [1] is 4.5 nM. Besides, in data set [2] (CVB3), it took 251000 nM to reach half-maximal cytotoxicity (CC50 at 1 day). Also, the CC50 – broadly, the concentration giving 50% cytotoxicity – at 4 days in data set [3] was 251000 nM.

Turning to `CC(=O)NC[C@H](NC(=O)[C@H](Cc1ccccc1)NC(=O)[C@H](CC(C)C)NC(=O)OCc1ccccc1)C(=O)c1nc2ccccc2s1` [Compound 9, Cbz-L-Leu-L-Phe-L-(N-Ac-amino-Ala)-2-Benzthiazole], it took 25000 nM to reach half-maximal cytotoxicity in the data set “in vitro” (CC50 at 2 days). Further, the inhibitory constant (Ki) in data set [4] amounted to 900 nM; in [5], 310 nM; in [6], 480 nM; in data set [1] it was 1700 nM. The concentration for a half-maximal effect (EC50) with HRV-16 and with HRV-14 was greater than 25000 nM each time.

Consider `CC(C)C[C@H](NC(=O)OCc1ccccc1)C(=O)N[C@@H](Cc1ccccc1)C(=O)N[C@@H](C[C@@H]1CCNC1=O)C(=O)c1nccs1` [Compound 22, Cbz-L-Leu-L-Phe-L-[(S)-Pyrrol-Ala]-2-Thiazole], for which the melting point – broadly, the temperature, or range, at which the solid turns liquid – fell in the range of 83 to 85 °C. For the same molecule, in “in vitro”, the CC50 at 2 days was 240000 nM. Also, the concentration for a half-maximal effect (EC50) with HRV-14 turned out to be 7900 nM. Further, the Ki in data set [1] came out at 700 nM.

For `C#CC(=O)[C@H](CNC(C)=O)NC(=O)[C@H](Cc1ccccc1)NC(=O)[C@H](CC(C)C)NC(=O)OCc1ccccc1` [Compound 14, Cbz-L-Leu-L-Phe-L-(N-Ac-amino-Ala)-C≡CH], the CC50 at 2 days in the data set “in vitro” was greater than 100000 nM. Also, the Ki is 124 nM in [4], 322 nM in [5], 760 nM in data set [6] and 65 nM in data set [1]. Besides, the 50% effective concentration (EC50) with HRV-89 and in the data set with HRV-14 was greater than 100000 nM in each case. The molecule further came in with a cytotoxic concentration (CC50) in the data set with H1-HeLa cells greater than 100000 nM.

(Values after US6534530B1, “Antipicornaviral compounds and compositions, their pharmaceutical uses, and materials for their synthesis” (Agouron Pharmaceuticals, Inc., priority 1999, dated 2003).)
